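Dose response: 5 concentrations. Exposure: 48 h. Format: 96-well plates. Endpoint: linear interpolation; highest concentration if not reached. GI50: concentration for 50% inhibition of growth.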 Activity calls are given as the source filed them. Cut-off read from the data, not from the text of the source: active = GI50 up to about 1.1 µM and inactive = higher.
Assays:
Experiment in all cases: DTP human tumour cell line panel, 48 h
[1] = test system: BT-549
[2] = test system: 786-0
[3] = test system: SNB-19
[4] = test system: SK-OV-3
[5] = test system: UACC-62
[6] = test system: NCI-H226
[7] = test system: OVCAR-5
[8] = test system: RXF 393
[9] = test system: SK-MEL-5
[10] = test system: KM12
[11] = test system: MOLT-4
[12] = test system: CAKI-1
[13] = test system: HT-29
[14] = test system: DU-145
[15] = test system: MDA-N
[16] = test system: HL-60
[17] = test system: A498
[18] = test system: SF-268
[19] = test system: TK-10
[20] = test system: UACC-257

Row | SMILES | GI50 [1] | GI50 [2] | GI50 [3] | GI50 [4] | GI50 [5] | GI50 [6] | GI50 [7] | GI50 [8] | GI50 [9] | GI50 [10] | GI50 [11] | GI50 [12] | GI50 [13] | GI50 [14] | GI50 [15] | GI50 [16] | GI50 [17] | GI50 [18] | GI50 [19] | GI50 [20]
1 | CSc1cccc(NC(=O)OC2CCCCCCCCCCC2)c1 | 34.8 µM (inactive) | 20.9 µM (inactive) | 37.5 µM (inactive) | 16.6 µM (inactive) | 18.1 µM (inactive) | 29.9 µM (inactive) | 30.3 µM (inactive) | 18.8 µM (inactive) | 15.4 µM (inactive) | 13.3 µM (inactive) | 23.5 µM (inactive) | 17.6 µM (inactive) | 16.6 µM (inactive) | 31.8 µM (inactive) | 21 µM (inactive) | 14.3 µM (inactive) | 21.7 µM (inactive) | 29.8 µM (inactive) | 26.9 µM (inactive) | 16 µM (inactive)
2 | N/C(=N\c1cccc(Cl)c1)c1ccccc1N | > 100 µM (inactive) | > 100 µM (inactive) | > 100 µM (inactive) | > 100 µM (inactive) | > 100 µM (inactive) | > 100 µM (inactive) | > 100 µM (inactive) | > 100 µM (inactive) | > 100 µM (inactive) | > 100 µM (inactive) | > 100 µM (inactive) | > 100 µM (inactive) | > 100 µM (inactive) | > 100 µM (inactive) | > 100 µM (inactive) | > 100 µM (inactive) | > 100 µM (inactive) | > 100 µM (inactive) | > 100 µM (inactive) | > 100 µM (inactive)
3 | C=C1C(=O)OC2C1C(OC(=O)/C(C)=C/C)CC(O)(CCl)C1C(O)C3OC3(C)C21O (stereo not given) | 17.4 µM (inactive) | 15.9 µM (inactive) | > 50 µM (inactive) | > 50 µM (inactive) | 34.6 µM (inactive) | > 50 µM (inactive) | > 50 µM (inactive) | 9.77 µM (inactive) | 28.2 µM (inactive) | > 50 µM (inactive) | 13.6 µM (inactive) | 13.2 µM (inactive) | 36.9 µM (inactive) | > 50 µM (inactive) | 26.6 µM (inactive) | 8.79 µM (inactive) | > 50 µM (inactive) | > 50 µM (inactive) | 40.1 µM (inactive) | > 50 µM (inactive)
4 | CCOC(=O)/C=C(\C(=O)OCC)n1ccc(=O)n(CC(=O)OCC)c1=O | 11.7 µM (inactive) | 1.82 µM (inactive) | 19.3 µM (inactive) | 17.9 µM (inactive) | 7.36 µM (inactive) | 6.52 µM (inactive) | 4.95 µM (inactive) | 1.26 µM (inactive) | 13 µM (inactive) | 15.1 µM (inactive) | 1.43 µM (inactive) | 0.638 µM (active) | 5.9 µM (inactive) | 17.3 µM (inactive) | 5.96 µM (inactive) | 0.495 µM (active) | 17.7 µM (inactive) | 13.2 µM (inactive) | 2.57 µM (inactive) | 11.6 µM (inactive)
5 | C=C1c2nc3ccccc3n2C=C(c2ccc(Cl)cc2)N1c1ccc(OCCN2CCCCC2)cc1 | > 45 µM (inactive) | > 45 µM (inactive) | > 45 µM (inactive) | > 45 µM (inactive) | > 45 µM (inactive) | > 100 µM (inactive) | > 45 µM (inactive) | > 45 µM (inactive) | > 45 µM (inactive) | > 45 µM (inactive) | > 45 µM (inactive) | > 45 µM (inactive) | > 45 µM (inactive) | > 45 µM (inactive) | 6.32 µM (inactive) | 5.01 µM (inactive) | > 45 µM (inactive) | 1.63 µM (inactive) | > 45 µM (inactive) | 0.843 µM (active)
6 | COc1cc(C[C@@H](C)N)cc(OC)c1 | > 100 µM (inactive) | > 100 µM (inactive) | > 100 µM (inactive) | > 100 µM (inactive) | > 100 µM (inactive) | > 100 µM (inactive) | > 100 µM (inactive) | 43.7 µM (inactive) | > 100 µM (inactive) | > 100 µM (inactive) | > 100 µM (inactive) | > 100 µM (inactive) | > 100 µM (inactive) | > 100 µM (inactive) | > 100 µM (inactive) | > 100 µM (inactive) | > 100 µM (inactive) | > 100 µM (inactive) | > 100 µM (inactive) | > 100 µM (inactive)

From ChEMBL document CHEMBL1201862, “PubChem BioAssay data set” (2004)
